Source: BigSolDB 2.1

Nc1ccc(Sc2ccc([N+](=O)[O-])cc2)cc1
Conditions	solubility (mole fraction)
in chlorobenzene, 291.25 K	0.011
in chlorobenzene, 296.55 K	0.0133
in chlorobenzene, 301.75 K	0.0174
in chlorobenzene, 306.25 K	0.019
in chlorobenzene, 311.35 K	0.0225
in chlorobenzene, 316.65 K	0.0275
in chlorobenzene, 321.25 K	0.0314
in chloroform, 288.35 K	0.0218
in chloroform, 293.55 K	0.0264
in chloroform, 298.45 K	0.0307
in chloroform, 303.65 K	0.0361
in chloroform, 309.25 K	0.0433
in dichloromethane, 287.45 K	0.0244
in dichloromethane, 290.95 K	0.0275
in dichloromethane, 293.75 K	0.0299
in dichloromethane, 297.15 K	0.0339
in ethyl acetate, 290.45 K	0.0511
in ethyl acetate, 295.65 K	0.0575
in ethyl acetate, 300.45 K	0.063
in ethyl acetate, 305.65 K	0.0709
in ethyl acetate, 309.15 K	0.0766
in ethyl acetate, 313.65 K	0.0836
in ethyl acetate, 318.25 K	0.0911
in n-butanol, 292.55 K	0.0018
in n-butanol, 297.75 K	0.0024
in n-butanol, 302.65 K	0.0031
in n-butanol, 307.65 K	0.004
in n-butanol, 312.35 K	0.005
in n-butanol, 317.55 K	0.0061
in n-butanol, 322.25 K	0.0081
in toluene, 289.75 K	0.0183
in toluene, 294.55 K	0.0214
in toluene, 299.65 K	0.0241
in toluene, 304.75 K	0.0283
in toluene, 309.35 K	0.0337
in toluene, 314.55 K	0.0385
in toluene, 319.35 K	0.0448
in toluene, 324.65 K	0.0506
